Data taken from patent US11827644B2, “Pyrazine derivative and application thereof in inhibiting SHP2” (SUZHOU GENHOUSE PHARMACEUTICAL CO., LTD, priority 2019, dated 2023).

biological target: SHP2 (Homo sapiens (Human), UniProt Q06124); test: SHP2 allosteric inhibition experiment (DiFMUP fluorescence); assay type: biochemical; conditions: 0.5 nM SHP2 activated with 0.5 μM peptide IRS1_pY1172(dPEG8)pY1222; substrate DiFMUP; 25° C.; read-out: IC50 values of compounds inhibiting SHP2
From the text: SHP2 allosteric inhibition experiment
SHP2 is allosterically activated through the activation of a bis-tyrosyl-phosphorylated peptide and Src Homology 2 (SH2) domains. The activation steps followed result in the release of the auto-inhibition interface, which in turn activates the SHP2 protein tyrosine phosphatase (PTP) and can be used for substrate recognition and reaction catalysis. The SHP2 catalytic activity is monitored by a rapid fluorescent mode with the alternative substrate DiFMUP.
The phosphatase reaction was conducted in 384-well black polystyrene plates (Corning, Cat #3575) with flat bottom, low edge and non-binding surface at room temperature and 25 μl final volume of the following buffer condition: 60 mM HEPES, pH 7.2, 75 mM NaCl, 75 mM KCl, 1 mM EDTA, 0.05% P-20, 5 mM DTT.
The following experiments were conducted to monitor the SHP2 inhibition by the compounds (at concentrations of 0.0003-100 μM) in this invention:
Wherein, incubate 0.5 nM SHP2 with 0.5 μM peptide IRS1_pY1172 (dPEG8) pY1222 (sequence: H2N-LN (pY) IDLDLV (dPEG8) LST (pY) ASINFQK-amide) (SEQ ID NO: 1) (WO2016/203406A1). After incubation at 25° C. for 30-60 minutes, the alternative substrate DiFMUP (Invitrogen, cat #D6567) was added to the reaction and incubated at 25° C. for 30 minutes. The reaction was then carefully […] by adding 5 μL of a 160 μM bpV (Phen) solution (Enzo Life Sciences cat #ALX-270-204). The fluorescence signal was monitored using a microplate reader (VARIOSKAN LUX, Thermo) with excitation and emission wavelengths of 340 nm and 450 nm, respectively. The inhibitory dose-response curve is analyzed using a standardized IC50 regression curve based on control-based normalization.

Structure (SMILES) | IC50
C[C@@H]1OCC2(CCN(c3cnc(Sc4cccc(N5CCCC5=O)c4Cl)cn3)CC2)[C@@H]1N [Example 1] | 7.69 nM
C[C@@H]1OCC2(CCN(c3cnc(Sc4cccc(N5CCCC5)c4Cl)cn3)CC2)[C@@H]1N [Example 4] | 7.88 nM
C[C@@H]1OCC2(CCN(c3cnc(Sc4ccnc(-c5cnccn5)c4Cl)cn3)CC2)[C@@H]1N [Example 7] | 41.6 nM
C[C@@H]1OCC2(CCN(c3cnc(Sc4cccc(-c5cnccn5)c4Cl)c(N)n3)CC2)[C@@H]1N [Example 8] | 5.12 nM
C[C@@H]1OCC2(CCN(c3cnc(Sc4cccc(-c5ncccn5)c4Cl)cn3)CC2)[C@@H]1N [Example 9] | 6.61 nM
C[C@@H]1OCC2(CCN(c3cnc(Sc4cccc(NC(=O)c5cccc(F)c5Cl)c4Cl)cn3)CC2)[C@@H]1N [Example 10] | 5.1 nM
C[C@@H]1OCC2(CCN(c3cnc(Sc4cccc(NC(=O)c5cc(F)c(F)cc5Cl)c4Cl)cn3)CC2)[C@@H]1N [Example 13] | 5.88 nM
C[C@@H]1OCC2(CCN(c3cnc(Sc4cccc(-c5nc6ccccc6o5)c4Cl)cn3)CC2)[C@@H]1N [Example 14] | 9.24 nM
C[C@@H]1OCC2(CCN(c3cnc(Sc4cccc(-c5nc(C#N)co5)c4Cl)cn3)CC2)[C@@H]1N [Example 15] | 4.06 nM
Cc1ncsc1-c1cccc(Sc2cnc(N3CCC4(CC3)CO[C@@H](C)[C@H]4N)cn2)c1Cl [Example 16] | 4.9 nM
C[C@@H]1OCC2(CCN(c3cnc(Sc4cccc(-c5nc(C#N)cs5)c4Cl)cn3)CC2)[C@@H]1N [Example 17] | 4.35 nM
Cc1csc(-c2cccc(Sc3cnc(N4CCC5(CC4)CO[C@@H](C)[C@H]5N)cn3)c2Cl)n1 [Example 18] | 7.93 nM
C[C@@H]1OCC2(CCN(c3cnc(Sc4cccc(-c5ccc(C#N)o5)c4Cl)cn3)CC2)[C@@H]1N [Example 21] | 6.01 nM
C[C@@H]1OCC2(CCN(c3cnc(Sc4cccc(-c5cn6ccnc6cn5)c4Cl)cn3)CC2)[C@@H]1N [Example 26] | 6.33 nM
C[C@@H]1OCC2(CCN(c3cnc(Sc4cccc(-c5cccs5)c4Cl)cn3)CC2)[C@@H]1N [Example 28] | 9.4 nM
C[C@@H]1OCC2(CCN(c3cnc(Sc4cccc(-c5cnc6ccnn6c5)c4Cl)cn3)CC2)[C@@H]1N [Example 29] | 6.62 nM
C[C@@H]1OCC2(CCN(c3cnc(Sc4cccc(NC(=O)c5cc6n(n5)CCCC6)c4Cl)cn3)CC2)[C@@H]1N [Example 30] | 6.45 nM
C[C@@H]1OCC2(CCN(c3cnc(Sc4cccc(N5C(=O)C6CC6C5=O)c4Cl)cn3)CC2)[C@@H]1N (stereo partly shown) [Example 31] | 7.91 nM
C[C@@H]1OCC2(CCN(c3cnc(Sc4cccc(-c5nccs5)c4Cl)cn3)CC2)[C@@H]1N [Example 34] | 5.34 nM
C[C@@H]1OCC2(CCN(c3cnc(Sc4cccc(NC(=O)c5c(O)nc6ccccn6c5=O)c4Cl)cn3)CC2)[C@@H]1N [Example 36] | 6.42 nM
C[C@@H]1OCC2(CCN(c3cnc(Sc4cccc(NC(=O)c5ccccc5O)c4Cl)cn3)CC2)[C@@H]1N [Example 37] | 9.01 nM
C[C@@H]1OCC2(CCN(c3cnc(Sc4cccc(NC(=O)c5cc(Cl)ccc5O)c4Cl)cn3)CC2)[C@@H]1N [Example 38] | 9.41 nM
C[C@@H]1OCC2(CCN(c3cnc(Sc4cccc(NC(=O)c5cc6n(n5)CCC6)c4Cl)cn3)CC2)[C@@H]1N [Example 39] | 8.3 nM
CCn1cc(-c2cccc(Sc3cnc(N4CCC5(CC4)CO[C@@H](C)[C@H]5N)cn3)c2Cl)cn1 [Example 40] | 4.4 nM
C[C@@H]1OCC2(CCN(c3cnc(Sc4cccc(-c5cnc6[nH]ccc6n5)c4Cl)cn3)CC2)[C@@H]1N [Example 41] | 6.2 nM
C[C@@H]1OCC2(CCN(c3cnc(Sc4cccc(Nc5ncccn5)c4Cl)cn3)CC2)[C@@H]1N [Example 43] | 7.5 nM
C[C@@H]1OCC2(CCN(c3cnc(Sc4cccc(Nc5cnn(C)c5)c4Cl)cn3)CC2)[C@@H]1N [Example 44] | 7.3 nM

Stronger by IC50, values ahead:

IC50 | Structure (SMILES)
2.71 nM | C[C@@H]1OCC2(CCN(c3cnc(Sc4cccc(Nc5cnccn5)c4Cl)cn3)CC2)[C@@H]1N [Example 2]
1.26 nM | C[C@@H]1OCC2(CCN(c3cnc(Sc4cccc(-c5ncco5)c4Cl)cn3)CC2)[C@@H]1N [Example 3]
2.12 nM | C[C@@H]1OCC2(CCN(c3cnc(Sc4cccc(-c5ccn(C)n5)c4Cl)cn3)CC2)[C@@H]1N [Example 5]
1.31 nM | C[C@@H]1OCC2(CCN(c3cnc(Sc4cccc(-c5cnccn5)c4Cl)cn3)CC2)[C@@H]1N [Example 6]
0.31 nM | C[C@@H]1OCC2(CCN(c3cnc(Sc4cccc(NC(=O)c5c(O)nc6n(c5=O)CCCC6)c4Cl)cn3)CC2)[C@@H]1N [Example 11]
3.59 nM | C[C@@H]1OCC2(CCN(c3cnc(Sc4cccc(NC(=O)c5ccn(C)n5)c4Cl)cn3)CC2)[C@@H]1N [Example 12]
1.95 nM | C[C@@H]1OCC2(CCN(c3cnc(Sc4cccc(-c5nc(C(N)=O)co5)c4Cl)cn3)CC2)[C@@H]1N [Example 19]
1.27 nM | C[C@@H]1OCC2(CCN(c3cnc(Sc4cccc(-c5nc(C(=O)O)co5)c4Cl)cn3)CC2)[C@@H]1N [Example 20]
1.72 nM | C[C@@H]1OCC2(CCN(c3cnc(Sc4cccc(NC(=O)c5ccccc5C(=O)O)c4Cl)cn3)CC2)[C@@H]1N [Example 22]
3.28 nM | C[C@@H]1OCC2(CCN(c3cnc(Sc4cccc(-c5cnn6cccnc56)c4Cl)cn3)CC2)[C@@H]1N [Example 23]
2.41 nM | Cc1coc(-c2cccc(Sc3cnc(N4CCC5(CC4)CO[C@@H](C)[C@H]5N)cn3)c2Cl)n1 [Example 24]
1.74 nM | CCn1ccc(-c2cccc(Sc3cnc(N4CCC5(CC4)CO[C@@H](C)[C@H]5N)cn3)c2Cl)n1 [Example 25]
3.51 nM | C[C@@H]1OCC2(CCN(c3cnc(Sc4cccc(-c5nc(C#N)co5)c4Cl)cn3)CC2)[C@@H]1N [Example 27]
2.82 nM | C[C@@H]1OCC2(CCN(c3cnc(Sc4cccc(-c5ccn6nccc6n5)c4Cl)cn3)CC2)[C@@H]1N [Example 32]
2.91 nM | C[C@@H]1OCC2(CCN(c3cnc(Sc4cccc(NC(=O)c5ncccn5)c4Cl)cn3)CC2)[C@@H]1N [Example 35]
3.4 nM | C[C@@H]1OCC2(CCN(c3cnc(Sc4cccc(-c5cnn(CCO)c5)c4Cl)cn3)CC2)[C@@H]1N [Example 42]
